Data taken from ChEMBL document CHEMBL1158811, “Echinamines A and B, first aminated hydroxynaphthazarins from the sea urchin Scaphechinus mirabilis” (J Nat Prod, 2005).

These compounds were tested on Radical scavenging activity (assay: Antioxidant activity assessed as DPPH radical scavenging activity).
Format: functional
For CCc1c(O)c(O)c2c(c1O)C(=O)C(O)=C(N)C2=O [ECHINAMINE A], the EC50 was 10 µM. In the case of O=C1C(O)=C(O)C(=O)c2c(O)c(O)cc(O)c21 [SPINOCHROME D], the EC50 is reported as 10 µM. CCc1c(O)c(O)c2c(c1O)C(=O)C(N)=C(O)C2=O [ECHINAMINE B] was tested, and the EC50 was 10 µM. In the case of CCC1=C(O)C(=O)c2c(O)c(O)c(O)c(O)c2C1=O [ECHINOCHROME A], the EC50 is reported as 10 µM.
